This is an account of results in ChEMBL document CHEMBL3785084, “Rational modification of the lead molecule: Enhancement in the anticancer and dihydrofolate reductase inhibitory activity” (Bioorg Med Chem Lett, 2016).

For one assay, the target named is T1, Dihydrofolate reductase (Homo sapiens, UniProt P00374).
T1 sequence (P00374 whole entry): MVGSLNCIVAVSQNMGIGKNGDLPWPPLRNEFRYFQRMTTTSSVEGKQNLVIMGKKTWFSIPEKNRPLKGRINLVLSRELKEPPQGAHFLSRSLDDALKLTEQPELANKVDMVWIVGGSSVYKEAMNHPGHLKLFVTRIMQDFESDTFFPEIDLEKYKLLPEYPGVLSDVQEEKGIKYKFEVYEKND
Briefly: Inhibition of human DHFR assessed as conversion of dihydrofolic acid to tetrahydrfolic acid by enzyme immunoassay in presence of NADPH.

Another assay relates to CCRF-CEM. As to conditions: Homo sapiens, 10^-5 M.
For a further assay, the system named is HL-60(TB). As to conditions: Homo sapiens, 10^-5 M.
The next assay concerns K562. As to conditions: Homo sapiens, 10^-5 M.
In a further assay the test system is MOLT-4. Particulars: Homo sapiens, 10^-5 M.
The next assay concerns RPMI-8226. As to conditions: Homo sapiens, 10^-5 M.
A further assay concerns SR. Particulars: Homo sapiens, 10^-5 M.
The subject of a further assay is A549. Particulars: Homo sapiens, 10^-5 M.
A further assay concerns EKVX. As to conditions: Homo sapiens, 10^-5 M.
Another assay concerns HOP-62. As to conditions: Homo sapiens, 10^-5 M.
The test system of a further assay is HOP-92. Particulars: Homo sapiens, 10^-5 M.
Another assay has as its system NCI-H226. Particulars: Homo sapiens, 10^-5 M.
The subject of a further assay is NCI-H23. Particulars: Homo sapiens, 10^-5 M.
The subject of another assay is NCI-H460. Particulars: Homo sapiens, 10^-5 M.
For another assay, the system named is NCI-H522. Particulars: Homo sapiens, 10^-5 M.
For another assay, the system named is COLO 205. As to conditions: Homo sapiens, 10^-5 M.
The test system of the next assay is HCC 2998. As to conditions: Homo sapiens, 10^-5 M.
For another assay, the system named is HCT-116. As to conditions: Homo sapiens, 10^-5 M.
The test system of another assay is HCT-15. Particulars: Homo sapiens, 10^-5 M.
The next assay deals with HT-29. Particulars: Homo sapiens, 10^-5 M.
The next assay concerns KM12. As to conditions: Homo sapiens, 10^-5 M.
The subject of another assay is SW-620. As to conditions: Homo sapiens, 10^-5 M.
The subject of the next assay is SF-268. As to conditions: Homo sapiens, 10^-5 M.
The next assay deals with SF-295. Particulars: Homo sapiens, 10^-5 M.
The next assay concerns SF-539. As to conditions: Homo sapiens, 10^-5 M.
A further assay has as its system SNB-19. As to conditions: Homo sapiens, 10^-5 M.
Another assay deals with SNB-75. Particulars: Homo sapiens, 10^-5 M.
Another assay deals with U-251. As to conditions: Homo sapiens, 10^-5 M.
The next assay has as its system LOX IMVI. Particulars: Homo sapiens, 10^-5 M.
The next assay deals with Malme-3M. Particulars: Homo sapiens, 10^-5 M.
A further assay relates to M14. Particulars: Homo sapiens, 10^-5 M.
The next assay has as its system MDA-MB-435. As to conditions: Homo sapiens, 10^-5 M.
The next assay deals with SK-MEL-2. Particulars: Homo sapiens, 10^-5 M.
The subject of another assay is SK-MEL-28. As to conditions: Homo sapiens, 10^-5 M.
A further assay deals with SK-MEL-5. As to conditions: Homo sapiens, 10^-5 M.
The next assay has as its system UACC-257. As to conditions: Homo sapiens, 10^-5 M.
In another assay the test system is UACC-62. Particulars: Homo sapiens, 10^-5 M.
The next assay deals with IGROV-1. As to conditions: Homo sapiens, 10^-5 M.
Another assay deals with OVCAR-3. Particulars: Homo sapiens, 10^-5 M.
A further assay deals with OVCAR-4. Particulars: Homo sapiens, 10'-5 M.
Another assay relates to OVCAR-5. Particulars: Homo sapiens, 10^-5 M.
Another assay deals with OVCAR-8. Particulars: Homo sapiens, 10^-5 M.
In the next assay the test system is NCI/ADR-RES. Particulars: Homo sapiens, 10^-5 M.
Another assay concerns SK-OV-3. As to conditions: Homo sapiens, 10^-5 M.
A further assay deals with 786-0. Particulars: Homo sapiens, 10^-5 M.
The next assay deals with A498. As to conditions: Homo sapiens, 10^-5 M.
For a further assay, the system named is ACHN. Particulars: Homo sapiens, 10^-5 M.
The test system of a further assay is CAKI-1. Particulars: Homo sapiens, 10^-5 M.
The test system of the next assay is RXF 393. As to conditions: Homo sapiens, 10^-5 M.
Another assay deals with SN12C. Particulars: Homo sapiens, 10^-5 M.
Another assay has as its system TK-10. As to conditions: Homo sapiens, 10^-5 M.
The test system of a further assay is UO-31. Particulars: Homo sapiens, 10^-5 M.
The next assay concerns PC-3. Particulars: Homo sapiens, 10^-5 M.
The test system of another assay is DU-145. Particulars: Homo sapiens, 10^-5 M.
Another assay has as its system MCF7. As to conditions: Homo sapiens, 10^-5 M.
Another assay relates to MDA-MB-231. As to conditions: Homo sapiens, 10^-5 M.
The next assay deals with Hs-578T. Particulars: Homo sapiens, 10^-5 M.
A further assay has as its system BT-549. Particulars: Homo sapiens, 10^-5 M.
For another assay, the system named is T47D. As to conditions: Homo sapiens, 10^-5 M.
A further assay has as its system MDA-MB-468. As to conditions: Homo sapiens, 10^-5 M.

pIC50: −log10 of the molar value. Activity calls are given as the source filed them. No cut-off for these calls is given here.

The term pIC50 denotes −log10 of the IC50, conventionally taken in molar units.

Description for 786-0: Cytotoxicity against human 786-0 cells assessed as tumor growth inhibition at 10^-5 M after 48 hrs by sulforhodamine B assay
Description for A498: Cytotoxicity against human A498 cells assessed as tumor growth inhibition at 10^-5 M after 48 hrs by sulforhodamine B assay
Description for A549: Cytotoxicity against human A549 cells assessed as tumor growth inhibition at 10^-5 M after 48 hrs by sulforhodamine B assay
Description for ACHN: Cytotoxicity against human ACHN cells assessed as tumor growth inhibition at 10^-5 M after 48 hrs by sulforhodamine B assay
Description for BT-549: Cytotoxicity against human BT549 cells assessed as tumor growth inhibition at 10^-5 M after 48 hrs by sulforhodamine B assay
Description for CAKI-1: Cytotoxicity against human Caki1 cells assessed as tumor growth inhibition at 10^-5 M after 48 hrs by sulforhodamine B assay
Description for CCRF-CEM: Cytotoxicity against human CCRF-CEM cells assessed as tumor growth inhibition at 10^-5 M after 48 hrs by sulforhodamine B assay
Description for COLO 205: Cytotoxicity against human COLO205 cells assessed as tumor growth inhibition at 10^-5 M after 48 hrs by sulforhodamine B assay
Description for DU-145: Cytotoxicity against human DU145 cells assessed as tumor growth inhibition at 10^-5 M after 48 hrs by sulforhodamine B assay
Description for EKVX: Cytotoxicity against human EKVX cells assessed as tumor growth inhibition at 10^-5 M after 48 hrs by sulforhodamine B assay
Description for HCC 2998: Cytotoxicity against human HCC2998 cells assessed as tumor growth inhibition at 10^-5 M after 48 hrs by sulforhodamine B assay
Description for HCT-116: Cytotoxicity against human HCT116 cells assessed as tumor growth inhibition at 10^-5 M after 48 hrs by sulforhodamine B assay
Description for HCT-15: Cytotoxicity against human HCT15 cells assessed as tumor growth inhibition at 10^-5 M after 48 hrs by sulforhodamine B assay
Description for HL-60(TB): Cytotoxicity against human HL-60(TB) cells assessed as tumor growth inhibition at 10^-5 M after 48 hrs by sulforhodamine B assay
Description for HOP-62: Cytotoxicity against human HOP62 cells assessed as tumor growth inhibition at 10^-5 M after 48 hrs by sulforhodamine B assay
Description for HOP-92: Cytotoxicity against human HOP92 cells assessed as tumor growth inhibition at 10^-5 M after 48 hrs by sulforhodamine B assay
Description for HT-29: Cytotoxicity against human HT-29 cells assessed as tumor growth inhibition at 10^-5 M after 48 hrs by sulforhodamine B assay
Description for Hs-578T: Cytotoxicity against human Hs 578T cells assessed as tumor growth inhibition at 10^-5 M after 48 hrs by sulforhodamine B assay
Description for IGROV-1: Cytotoxicity against human IGROV1 cells assessed as tumor growth inhibition at 10^-5 M after 48 hrs by sulforhodamine B assay
Description for K562: Cytotoxicity against human K562 cells assessed as tumor growth inhibition at 10^-5 M after 48 hrs by sulforhodamine B assay
Description for KM12: Cytotoxicity against human KM12 cells assessed as tumor growth inhibition at 10^-5 M after 48 hrs by sulforhodamine B assay
Description for LOX IMVI: Cytotoxicity against human LOXIMVI cells assessed as tumor growth inhibition at 10^-5 M after 48 hrs by sulforhodamine B assay
Description for M14: Cytotoxicity against human M14 cells assessed as tumor growth inhibition at 10^-5 M after 48 hrs by sulforhodamine B assay
Description for MCF7: Cytotoxicity against human MCF7 cells assessed as tumor growth inhibition at 10^-5 M after 48 hrs by sulforhodamine B assay
Description for MDA-MB-231: Cytotoxicity against human MDA-MB-231 cells assessed as tumor growth inhibition at 10^-5 M after 48 hrs by sulforhodamine B assay
Description for MDA-MB-435: Cytotoxicity against human MDA-MB-435 cells assessed as tumor growth inhibition at 10^-5 M after 48 hrs by sulforhodamine B assay
Description for MDA-MB-468: Cytotoxicity against human MDA-MB-468 cells assessed as tumor growth inhibition at 10^-5 M after 48 hrs by sulforhodamine B assay
Description for MOLT-4: Cytotoxicity against human MOLT4 cells assessed as tumor growth inhibition at 10^-5 M after 48 hrs by sulforhodamine B assay
Description for Malme-3M: Cytotoxicity against human MALME-3M cells assessed as tumor growth inhibition at 10^-5 M after 48 hrs by sulforhodamine B assay
Description for NCI-H226: Cytotoxicity against human NCI-H226 cells assessed as tumor growth inhibition at 10^-5 M after 48 hrs by sulforhodamine B assay
Description for NCI-H23: Cytotoxicity against human NCI-H23 cells assessed as tumor growth inhibition at 10^-5 M after 48 hrs by sulforhodamine B assay
Description for NCI-H460: Cytotoxicity against human NCI-H460 cells assessed as tumor growth inhibition at 10^-5 M after 48 hrs by sulforhodamine B assay
Description for NCI-H522: Cytotoxicity against human NCI-H522 cells assessed as tumor growth inhibition at 10^-5 M after 48 hrs by sulforhodamine B assay
Description for NCI/ADR-RES: Cytotoxicity against human NCI-ADR-RES cells assessed as tumor growth inhibition at 10^-5 M after 48 hrs by sulforhodamine B assay
Description for OVCAR-3: Cytotoxicity against human OVCAR3 cells assessed as tumor growth inhibition at 10^-5 M after 48 hrs by sulforhodamine B assay
Description for OVCAR-4: Cytotoxicity against human OVCAR4 cells assessed as tumor growth inhibition at 10^-5 M after 48 hrs by sulforhodamine B assay
Description for OVCAR-5: Cytotoxicity against human OVCAR5 cells assessed as tumor growth inhibition at 10^-5 M after 48 hrs by sulforhodamine B assay
Description for OVCAR-8: Cytotoxicity against human OVCAR8 cells assessed as tumor growth inhibition at 10^-5 M after 48 hrs by sulforhodamine B assay
Description for PC-3: Cytotoxicity against human PC3 cells assessed as tumor growth inhibition at 10^-5 M after 48 hrs by sulforhodamine B assay
Description for RPMI-8226: Cytotoxicity against human RPMI8226 cells assessed as tumor growth inhibition at 10^-5 M after 48 hrs by sulforhodamine B assay
Description for RXF 393: Cytotoxicity against human RXF393 cells assessed as tumor growth inhibition at 10^-5 M after 48 hrs by sulforhodamine B assay
Description for SF-268: Cytotoxicity against human SF268 cells assessed as tumor growth inhibition at 10^-5 M after 48 hrs by sulforhodamine B assay
Description for SF-295: Cytotoxicity against human SF295 cells assessed as tumor growth inhibition at 10^-5 M after 48 hrs by sulforhodamine B assay
Description for SF-539: Cytotoxicity against human SF539 cells assessed as tumor growth inhibition at 10^-5 M after 48 hrs by sulforhodamine B assay
Description for SK-MEL-28: Cytotoxicity against human SK-MEL-28 cells assessed as tumor growth inhibition at 10^-5 M after 48 hrs by sulforhodamine B assay
Description for SK-MEL-5: Cytotoxicity against human SK-MEL-5 cells assessed as tumor growth inhibition at 10^-5 M after 48 hrs by sulforhodamine B assay
Description for SK-OV-3: Cytotoxicity against human SKOV3 cells assessed as tumor growth inhibition at 10^-5 M after 48 hrs by sulforhodamine B assay
Description for SN12C: Cytotoxicity against human SN12C cells assessed as tumor growth inhibition at 10^-5 M after 48 hrs by sulforhodamine B assay
Description for SNB-19: Cytotoxicity against human SNB19 cells assessed as tumor growth inhibition at 10^-5 M after 48 hrs by sulforhodamine B assay
Description for SNB-75: Cytotoxicity against human SNB75 cells assessed as tumor growth inhibition at 10^-5 M after 48 hrs by sulforhodamine B assay
Description for SR: Cytotoxicity against human SR cells assessed as tumor growth inhibition at 10^-5 M after 48 hrs by sulforhodamine B assay
Description for SW-620: Cytotoxicity against human SW620 cells assessed as tumor growth inhibition at 10^-5 M after 48 hrs by sulforhodamine B assay
Description for T47D: Cytotoxicity against human T47D cells assessed as tumor growth inhibition at 10^-5 M after 48 hrs by sulforhodamine B assay
Description for TK-10: Cytotoxicity against human TK10 cells assessed as tumor growth inhibition at 10^-5 M after 48 hrs by sulforhodamine B assay
Description for U-251: Cytotoxicity against human U251 cells assessed as tumor growth inhibition at 10^-5 M after 48 hrs by sulforhodamine B assay
Description for UACC-257: Cytotoxicity against human UACC257 cells assessed as tumor growth inhibition at 10^-5 M after 48 hrs by sulforhodamine B assay
Description for UACC-62: Cytotoxicity against human UACC62 cells assessed as tumor growth inhibition at 10^-5 M after 48 hrs by sulforhodamine B assay
Description for UO-31: Cytotoxicity against human UO31 cells assessed as tumor growth inhibition at 10^-5 M after 48 hrs by sulforhodamine B assay

As to `O=C1NC(=S)NC(=O)C1=Cc1cn(CC(O)Cn2cc(C=C3C(=O)NC(=S)NC3=O)c3ccccc32)c2ccccc12`, the negative-log IC50 (pIC50) at Dihydrofolate reductase was 5.15.
For `COc1cc(Cc2cnc(N)nc2N)cc(OC)c1OC`, the TGI result with CCRF-CEM, in the assay on HL-60(TB), with K562, with MOLT-4, with RPMI-8226 and in the assay with SR was “inactive” each time. Further, the TGI entry in the assay with A549, in the assay on EKVX, in the assay with HOP-62, with HOP-92, in the assay on NCI-H226 and with NCI-H23 was “inactive” throughout. Moreover, the TGI result in the assay with NCI-H460, in the assay on NCI-H522, in the assay with COLO 205, in the assay on HCC 2998, with HCT-116 and with HCT-15 was “inactive” throughout. Besides, the TGI entry in the assay with HT-29, in the assay on KM12, with SW-620, in the assay with SF-268, in the assay on SF-295 and in the assay on SF-539 was “inactive” throughout. The TGI entry in the assay with SNB-19, in the assay on SNB-75, in the assay on U-251, in the assay on LOX IMVI, in the assay with Malme-3M and with M14 was “inactive” each time. Besides, the TGI entry in the assay with MDA-MB-435, in the assay on SK-MEL-2, in the assay with SK-MEL-28, with SK-MEL-5, in the assay with UACC-257 and with UACC-62 was “inactive” in each case. Moreover, the TGI result in the assay with IGROV-1, in the assay with OVCAR-3, in the assay on OVCAR-4, in the assay with OVCAR-5, with OVCAR-8 and in the assay on NCI/ADR-RES was “inactive” each time. For the same compound, the TGI entry in the assay on SK-OV-3, in the assay on 786-0, in the assay on A498, in the assay on ACHN, with CAKI-1 and in the assay on RXF 393 was “inactive” each time. Further, the TGI result in the assay on SN12C, with TK-10, in the assay with UO-31, in the assay on PC-3, with DU-145 and with MCF7 was “inactive” in each case. In addition, the TGI entry with MDA-MB-231, with Hs-578T, in the assay with BT-549, in the assay with T47D and with MDA-MB-468 was “inactive” in each case.
For `O=C1Nc2ccc([N+](=O)[O-])cc2/C1=C/c1cn(CC(O)Cn2cc(/C=C3\C(=O)Nc4ccc([N+](=O)[O-])cc43)c3ccccc32)c2ccccc12` (stereo unspecified), at Dihydrofolate reductase, the pIC50 was 6.15.
